Experiment in all cases: relative viability (nuclei count vs DMSO), 5 days (fraction); higher = more cells survive
Compound in assay [1]: CC(C)=CC[C@@H](O)C1=CC(=O)c2c(O)ccc(O)c2C1=O [Shikonin] + COc1cccc2cc(-c3nc([C@H]4CC[C@H](C(=O)O)CC4)n4ncnc(N)c34)[nH]c12 [OSI-027] (partner 0.5 µM)
In short, it runs like this:
(§1)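 The day after seeding in 1536-well plates, lung cancer cell lines were treated by pin tool with a single drug, or with a fixed anchor-drug dose together with five library-drug doses (not always all listed) in √10 steps. After 5 days, a combined fix-and-stain solution (final 0.05% Triton X-100, 1% formaldehyde, 1 ug/ml Hoechst) was added. Nuclei counted on 4× images gave relative viability as treated counts over vehicle counts, reported as the median of duplicate plates.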

Compound in assay [2]: CC(C)=CC[C@@H](O)C1=CC(=O)c2c(O)ccc(O)c2C1=O [Shikonin] + Cc1cc(Nc2cc(N3CCN(C)CC3)nc(Sc3ccc(NC(=O)C4CC4)cc3)n2)n[nH]1 [Tozasertib] (partner 0.1 µM)
The method in brief: as §1

Compound in assay [3]: CC(C)N(CCCNC(=O)Nc1ccc(C(C)(C)C)cc1)C[C@H]1O[C@@H](n2ccc3c(N)ncnc32)[C@H](O)[C@@H]1O + Cc1nc(NC(=O)N2CCC[C@H]2C(N)=O)sc1-c1ccnc(C(C)(C)C(F)(F)F)c1 [Alpelisib] (partner 2 µM)
In short, it runs like this: as §1

Compound in assay [4]: CC(C)=CC[C@@H](O)C1=CC(=O)c2c(O)ccc(O)c2C1=O [Shikonin] + NC(=O)Nc1cc(-c2cccc(F)c2)sc1C(=O)N[C@H]1CCCNC1 [AZD7762] (partner 0.2 µM)
The method in brief: as §1

On to COR-L23, for which the relative viability in assay [1] (first compound 0.01 µM) is 0.854; in assay [1] (first compound 0.1 µM), 0.778; in assay [1] (first compound 0.3162 µM), 0.732; in assay [1] (first compound 1 µM), 0.729; in assay [2] (first compound 0.01 µM), 0.202; in assay [2] (first compound 0.1 µM) it was 0.197. Further, the relative viability in assay [2] (first compound 0.3162 µM) came out at 0.171; in assay [2] (first compound 1 µM) it was 0.149; in assay [3] (first compound 0.08 µM), 0.74; in assay [3] (first compound 0.253 µM), 0.765; in assay [3] (first compound 0.8 µM), 0.791; in assay [3] (first compound 2.53 µM), 0.955. Further, in assay [3] (first compound 8 µM), the relative viability amounted to 0.759.
As to NCI-H1299, the relative viability in assay [3] (first compound 0.08 µM) worked out at 1.03; in assay [3] (first compound 0.253 µM), 1.03; in assay [3] (first compound 0.8 µM), 1.07; in assay [3] (first compound 2.53 µM), 1.02; in assay [3] (first compound 8 µM), 1.04.
With NCI-H1650, the relative viability in assay [1] (first compound 0.01 µM) was found to be 0.596; in assay [1] (first compound 0.1 µM) it was 0.459; in assay [1] (first compound 0.3162 µM) it was 0.392; in assay [1] (first compound 1 µM), 0.487; in assay [2] (first compound 0.01 µM) it was 0.419; in assay [2] (first compound 0.1 µM), 0.367. Besides, the relative viability in assay [2] (first compound 0.3162 µM) worked out at 0.365; in assay [2] (first compound 1 µM), 0.3.
For the cell line COR-L 105, the relative viability in assay [1] (first compound 0.01 µM) came out at 0.685; in assay [1] (first compound 0.1 µM) it was 0.723; in assay [1] (first compound 0.3162 µM), 0.613; in assay [1] (first compound 1 µM), 0.611; in assay [2] (first compound 0.01 µM), 0.254; in assay [2] (first compound 0.1 µM), 0.318. Also, the relative viability in assay [2] (first compound 0.3162 µM) came to 0.327; in assay [2] (first compound 1 µM), 0.366; in assay [3] (first compound 0.08 µM), 0.733; in assay [3] (first compound 0.253 µM), 1.08; in assay [3] (first compound 0.8 µM), 1.06; in assay [3] (first compound 2.53 µM), 1.02. The relative viability in assay [3] (first compound 8 µM) turned out to be 0.974.
As for NCI-H2009, the relative viability in assay [1] (first compound 0.01 µM) came out at 0.687; in assay [1] (first compound 0.1 µM), 0.622; in assay [1] (first compound 0.3162 µM) it was 0.52; in assay [1] (first compound 1 µM) it was 0.257; in assay [2] (first compound 0.01 µM), 0.747; in assay [2] (first compound 0.1 µM) it was 0.774. For the same cell line, the relative viability in assay [2] (first compound 0.3162 µM) came to 0.815; in assay [2] (first compound 1 µM), 0.56; in assay [3] (first compound 0.08 µM), 1.19; in assay [3] (first compound 0.253 µM), 1.15; in assay [3] (first compound 0.8 µM) it was 1.22; in assay [3] (first compound 2.53 µM) it was 1.22. In assay [3] (first compound 8 µM), the relative viability was 1.18.
As to ChaGo-K-1, the relative viability was determined as 0.598 in assay [1] (first compound 0.01 µM); 0.654 in assay [1] (first compound 0.1 µM); 0.665 in assay [1] (first compound 0.3162 µM); 0.662 in assay [1] (first compound 1 µM); 0.212 in assay [2] (first compound 0.01 µM); 0.232 in assay [2] (first compound 0.1 µM). The relative viability came out at 0.236 in assay [2] (first compound 0.3162 µM); 0.248 in assay [2] (first compound 1 µM); 0.942 in assay [4] (first compound 0.01 µM); 0.906 in assay [4] (first compound 0.1 µM); 0.913 in assay [4] (first compound 0.3162 µM); 0.876 in assay [4] (first compound 1 µM).
With SW 900, the relative viability in assay [1] (first compound 0.01 µM) worked out at 0.575; in assay [1] (first compound 0.1 µM), 0.616; in assay [1] (first compound 0.3162 µM) it was 0.508; in assay [1] (first compound 1 µM), 0.569; in assay [2] (first compound 0.01 µM), 0.546; in assay [2] (first compound 0.1 µM) it was 0.458. Moreover, the relative viability in assay [2] (first compound 0.3162 µM) was found to be 0.527; in assay [2] (first compound 1 µM), 0.536; in assay [4] (first compound 0.01 µM), 0.769; in assay [4] (first compound 0.1 µM) it was 0.634; in assay [4] (first compound 0.3162 µM), 0.262; in assay [4] (first compound 1 µM), 0.542.
NCI-H1563: the relative viability in assay [1] (first compound 0.01 µM) worked out at 0.678; in assay [1] (first compound 0.1 µM), 0.714; in assay [1] (first compound 0.3162 µM), 0.798; in assay [1] (first compound 1 µM) it was 0.769; in assay [3] (first compound 0.08 µM), 0.991; in assay [3] (first compound 0.253 µM) it was 0.907. For the same cell line, the relative viability was found to be 1.09 in assay [3] (first compound 0.8 µM), 0.973 in assay [3] (first compound 2.53 µM) and 0.991 in assay [3] (first compound 8 µM).
In the case of A549, the relative viability stood at 0.68 in assay [3] (first compound 0.08 µM); 0.848 in assay [3] (first compound 0.253 µM); 0.948 in assay [3] (first compound 0.8 µM); 0.723 in assay [3] (first compound 2.53 µM); 0.659 in assay [3] (first compound 8 µM).
Take NCI-H2342: the relative viability in assay [1] (first compound 0.01 µM) came to 0.597; in assay [1] (first compound 0.1 µM), 0.589; in assay [1] (first compound 0.3162 µM), 0.646; in assay [1] (first compound 1 µM) it was 0.671; in assay [2] (first compound 0.01 µM) it was 0.408; in assay [2] (first compound 0.1 µM), 0.494. Further, the relative viability in assay [2] (first compound 0.3162 µM) came to 0.502; in assay [2] (first compound 1 µM), 0.507; in assay [4] (first compound 0.01 µM), 0.503; in assay [4] (first compound 0.1 µM), 0.451; in assay [4] (first compound 0.3162 µM), 0.471; in assay [4] (first compound 1 µM) it was 0.472.
NCI-H1623: the relative viability in assay [1] (first compound 0.01 µM) stood at 0.397; in assay [1] (first compound 0.1 µM) it was 0.428; in assay [1] (first compound 0.3162 µM), 0.414; in assay [1] (first compound 1 µM), 0.393; in assay [2] (first compound 0.01 µM), 0.423; in assay [2] (first compound 0.1 µM), 0.472. Besides, the relative viability was found to be 0.441 in assay [2] (first compound 0.3162 µM) and 0.449 in assay [2] (first compound 1 µM).
On to NCI-H522, for which the relative viability in assay [1] (first compound 0.01 µM) is 0.566; in assay [1] (first compound 0.1 µM), 0.729; in assay [1] (first compound 0.3162 µM), 0.72; in assay [1] (first compound 1 µM), 0.809; in assay [2] (first compound 0.01 µM), 0.599; in assay [2] (first compound 0.1 µM), 0.555. Besides, the relative viability in assay [2] (first compound 0.3162 µM) came to 0.615; in assay [2] (first compound 1 µM), 0.572; in assay [4] (first compound 0.01 µM) it was 0.912; in assay [4] (first compound 0.1 µM), 0.957; in assay [4] (first compound 0.3162 µM) it was 0.864; in assay [4] (first compound 1 µM), 0.806.
On to IA-LM, for which the relative viability in assay [3] (first compound 0.08 µM) amounted to 0.667; in assay [3] (first compound 0.253 µM) it was 0.759; in assay [3] (first compound 0.8 µM), 0.787; in assay [3] (first compound 2.53 µM), 0.701; in assay [3] (first compound 8 µM), 0.723.
EBC-1: the relative viability turned out to be 0.749 in assay [3] (first compound 0.08 µM); 0.825 in assay [3] (first compound 0.253 µM); 0.739 in assay [3] (first compound 0.8 µM); 0.848 in assay [3] (first compound 2.53 µM); 0.704 in assay [3] (first compound 8 µM).
